Data reported in ChEMBL document CHEMBL1146400, “10-Epi-olguine from Rabdosia ternifolia” (1997).
≈ marks a conversion by molar mass, not a printed value.

What was measured:
Assay type in all cases: functional
Conditions in all cases: read-out: ED50 (the source's name)
Lu1 = test: Cytotoxicity against human Lu1 cells
LNCaP = test: Cytotoxicity against human LNCAP cells
[1] = Cytotoxicity against human KBVIN cells in absence of vinblastine
[2] = Cytotoxicity against human KBVIN cells in presence of vinblastine
KB = test: Cytotoxicity against human KB cells
Col2 = test: Cytotoxicity against human Col2 cells
[3] = Cytotoxicity against human BC1 cells

Work on CC(=O)O[C@@H](C)[C@@H](/C=C/[C@@H]1O[C@@H]1[C@@H]1OC(=O)C=C[C@@H]1OC(C)=O)OC(C)=O yielded an EC50 (Lu1) of 4.8 µg/mL (≈ 12.6 µM), an EC50 (LNCaP) of 1.2 µg/mL (≈ 3.14 µM) and an EC50 [1] of 2.1 µg/mL (≈ 5.49 µM). The EC50 [2] was 2.2 µg/mL, the EC50 (KB) was 1.8 µg/mL (≈ 4.71 µM) and the EC50 (Col2) was 2.1 µg/mL (≈ 5.49 µM). It also gave an EC50 [3] of 1.8 µg/mL (≈ 4.71 µM).
